Data reported in patent US8835617B2, “Polynucleotides encoding a human TRIM-Cyp fusion polypeptide, compositions thereof, and methods of using same” (priority 2008, dated 2014).

Legend:
CypA-CA interaction = conditions: CsA 2.5 μM, CRFK; DEBIO-025 in Jurkat
Description: All chemicals were obtained from Sigma unless otherwise noted. Puromycin was used at 1 μM. […] Arsenic trioxide (As2O3) was made at 100 mM in 1N sodium hydroxide (NaOH) and then further diluted to 1 mM in phosphate buffered saline (PBS). pH was adjusted to 7.5 with hydrochloric acid and stored at 4° C.

T5-mediated restriction = assay: Disruption of T5Cyp-mediated HIV-1 restriction by arsenic trioxide in CRFK cells; assay type: cell-based; conditions: increasing amounts
Description: This drug was previously shown to inhibit T5-mediated restriction (Sebastian et al., 2006).
Puromycin was used at 1 μM.

Compound | effect on HIV-1 restriction by AoT5Cyp and hT5Cyp (CypA-CA interaction) | effect on AoT5Cyp and hT5Cyp restriction activity (T5-mediated restriction)
C/C=C/C[C@@H](C)[C@@H](O)[C@H]1C(=O)N[C@@H](CC)C(=O)N(C)[C@H](C)C(=O)N(CC)[C@@H](C(C)C)C(=O)N[C@@H](C(C)C)C(=O)N(C)[C@@H](CC(C)C)C(=O)N[C@@H](C)C(=O)N[C@H](C)C(=O)N(C)[C@@H](CC(C)C)C(=O)N(C)[C@@H](CC(C)C)C(=O)N(C)[C@@H](C(C)C)C(=O)N1C [DEBIO-025] | Equivalent results | –
arsenic trioxide [As2O3] | – | blocked to the same extent
